Test results: patent US20120237567A1, “MODULATING LYMPHATIC FUNCTION” (THE GENERAL HOSPITAL CORPORATION, priority 2004, published 2012)

Tests used:
[1] = tested on: mouse tail lymphatic network (initial lymphatics); experiment: Mouse tail microlymphangiography with residence time distribution (RTD) analysis of lymphatic function; format: in vivo, mice (C57BL/6); conditions: for overall lymphatic fluid velocity in the dermal lymphatic network: collecting lymphatics not ligated
Description: Studies were carried out in 7-10 week old female C57BL/6 and nude mice. Forty-eight mice were used for these experiments: sixteen for the inhibition experiments, fifteen for the ligation experiment, and seventeen additional controls. All procedures were carried out following the guidelines of the Institutional Animal Care and Use Committee of the Massachusetts General Hospital.
Mice in the experimental groups 5 and 6 underwent ligation of the deep collecting lymphatic vessels of the tail immediately before the microlymphangiography, to avoid development of edema (FIG. 1). Mice were anesthetized intramuscularly (90 mg/kg Ketamine and 9 mg/kg Xylazine) and placed on a heated surgical microscopy table. The translucent deep collecting lymphatic vessels were separated from the tail veins with microsurgical forceps through small, bilateral incisions in the axial direction, and ligated with a 10-O non-absorbable suture (Prolene, Ethicon, N.J., United States). The incision site was closed with surgical glue, taking care to avoid circumferential tension on the tail that could interfere with superficial lymphatic function.
Fluorescence intensity measurements were carried out using RTD analysis as described previously (Swartz et al., Am J Physiol. 1996, 270:H324-H329). Briefly, mice were anesthetized intramuscularly (90 mg/kg Ketamine and 9 mg/kg Xylazine) and placed on a small plate. 2.5% FITC-dextran (MW=2 million; Sigma, St. Louis, Mo.) in PBS was infused into the interstitial tissue of the tail tip, with a constant pressure of 40 cm H2O via a 30-gauge needle. […] The mouse was transferred to an epifluorescence microscopy setup as described previously (Leu et al., Am J Physiol. 1994, 267:H1507-H1513). […] The temporally consecutive fluorescent images were analyzed offline using NIH Image Analysis software. The average fluorescence intensity was determined for each image, and used to calculate the mean residence time for each region, the overall lymph fluid velocity in the tail lymphatic network, and the mean LV diameter.

[2] = set-up: species or system C57BL/6 mice; conditions: mouse, in vivo
Description: 8 week old, female C57BL/6 mice were weighed and anesthetized (90 mg/kg Ketamine and 9 mg/kg Xylazine). Mean arterial pressure (MAP) was measured by cannulating the exposed left carotid artery with a PE-10 intravascular polyethylene catheter, connected to a pressure transducer (Gould Inc, Valley View, Ohio).

[3] = 3 days of treatment, not ligated, mean±SE
[4] = after ligation of the collecting lymphatics, 3 days of treatment, mean±SE

SMILES | overall lymphatic fluid velocity in the dermal lymphatic network ([1]; 3 days of treatment, mean±SE) | injection rate of the fluorescent tracer into the interstitium [1, 3] | mean lymphatic vessel diameter [1, 3] | decrease of overall lymphatic fluid velocity compared to controls that had received D-NMMA ([1]; 3 days of L-NMMA treatment, not ligated) | injection rate [1, 4] | mean lymphatic vessel diameter [1, 4] | lymphatic fluid velocity compared with controls treated with D-NMMA or AP (FIG. 2A) ([1]; not ligated, result in words) | mean lymphatic vessel diameter compared with controls (FIG. 2C) ([1]; not ligated, result in words) | MAP (mean arterial pressure) [2]
CN=C(N)NCCC[C@@H](N)C(=O)O [D-NMMA] | 8.7±0.4 μm/s | 15.7 ± 1.5 nL/min | 61.6±1.6 μm |  |  |  |  |  | 
CNC(=N)NCCC[C@H](N)C(=O)O [L-NMMA, NG-monomethyl-L-arginine] | 5.1±0.6 μm/s | 11.3 ± 1.2 nL/min | 61.5±0.7 μm | 42% | 25.0 ± 1.3 nL/min | 77.2±2.1 μm | significantly lower | not different | 71.7±1.4 mmHg
